# Measured values reported in PMC8024735, “Low Z‐4OHtam concentrations are associated with adverse clinical outcome among early stage premenopausal breast cancer patients treated with adjuvant tamoxifen” (Molecular Oncology, 2020).
# Several values for one entry are separate records, joined by “and”; a condition that tells them apart may be missing. Equal values may be shown once.
# Tests used:
# [1] = Quantification of tamoxifen and seven metabolites in bone marrow plasma by LC-MS/MS; conditions: for Mean concentration / Median concentration: bone marrow plasma, N = 406, ~ 8 months from tamoxifen initiation
# Experimental: During the isolation of mononuclear cells, BM samples were diluted 1 : 2 in PBS and centrifuged 10 min at 1000 g. After centrifugation, 3 × 1 mL samples of BM plasma was removed and stored at −40 °C and later transferred to −80 °C.
# Tamoxifen and seven metabolites (Table 2) were quantified in human BM plasma samples collected ~ 8 months from tamoxifen initiation using our previously described method for serum [17]. In brief, protein precipitation (20 μL) of BM plasma was performed in acetonitrile containing deuterated internal standards. The supernatant (80 μL) was evaporated to dryness using nitrogen and subsequently reconstituted in 500 μL water : methanol (20 : 80, v:v). Subsequently, the samples were chromatographically separated on a Waters Acquity UPLC system (Milford, MA, USA) using a Waters BEH Phenyl column (100 mm × 2.1 mm, 1.7 μm particle size). The column was developed by a gradient elution of 0.01% aqueous solution of formic acid and methanol as weak and strong mobile phases, respectively. The compounds were subjected to atmospheric pressure photoionization and detected in positive ion mode using a Xevo TQ‐S tandem mass spectrometer (Waters, Taunton, MA, USA). All measured concentrations were multiplied by 3 to account for the dilution factor caused by adding 2 volumes of PBS during the isolation of mononuclear cells.
# ER‐positive BC = system: ER‐positive BC; set-up: method as in PMID 15894097; conditions: patients using tamoxifen; cited from earlier work
# ER = conditions: fold higher than tamoxifen; cited from earlier work
# [2] = system: estrogen receptor‐positive breast cancer (BC) patients; experiment: Breast cancer-specific survival (BCSS) according to active metabolite thresholds, Kaplan-Meier and Cox regression; format: in vivo, human
# Source text: Patients included in this retrospective analysis were selected from subjects on a prospective trial investigating the value of Secondary Adjuvant (rescue) Treatment with docetaxel (Taxotere) [SATT (Secondary Adjuvant Treatment with Taxotere) study] for BC patients with disseminated tumor cells in their bone marrow (BM). […] Inclusion criteria were completion of primary surgery, completion of six cycles of anthracycline (AC)‐containing chemotherapy, and node‐positive or pT1c‐T4G2‐3 node‐negative BC with no earlier or other concomitant carcinoma.
# Thus, they reflect patients treated with endocrine treatment outside studies, according to national guidelines.
# Selection of patients younger than 45 years ensured that the patients received tamoxifen as a monotherapy for 5 years according to guidelines at the time of inclusion. […] Patients with plasma tamoxifen concentrations of < 40 nM were considered to be nonadherent to tamoxifen and excluded from both subgroups. As molecular subtyping was not available, the relevance of luminal subgroup status on active metabolite thresholds was investigated by creation of a Luminal B‐like subgroup based on tumor pathological surrogate markers available. […] All other patients were grouped as Luminal A [29, 30].
# Survival analyses included Kaplan–Meier and Cox regression analyses in which breast cancer‐specific survival (BCSS), defined as time from inclusion to death by BC, was used as the main outcome variable. The log‐rank test was applied to test for statistical difference in survival between groups. […] First, we fitted univariable Cox models. Next, in multivariable Cox regression models we included both clinically relevant variables and variables with a P‐value ≤ 0.2 from the univariable analysis. […] Distribution of metabolite concentrations and clinical variables was calculated and presented as means, medians, and frequencies. Interpatient variability in tamoxifen concentrations was calculated as coefficients of variation. Ratios between Z‐endoxifen and Z‐4OHtam were calculated by dividing the two metabolite concentrations and reported as means with range. All statistical analyses were conducted using IBM ® SPSS ® Statistics version 25 (SPSS, Inc., Chicago, IL, USA). Two‐tailed P‐values < 0.05 were considered statistically significant.
# breast cancer patients = system: breast cancer patients; set-up: method as in PMID 29183390; conditions: thresholds Z-4OHtam 3.26 nM, Z-endoxifen 9 nM, learning set; cited from earlier work
# [3] = set-up: method as in printed; conditions: has been reported, ref not given; cited from earlier work
# [4] = all analyzed patients (n = 406)
smiles,measurement,setting,value
CC/C(=C(\c1ccccc1)c1ccc(OCCNC)cc1)c1ccccc1 [NDtam],Mean concentration,[1],694.9 nM
same,Median concentration,[1],655.8 nM
"CC/C(=C(\c1ccccc1)c1ccc(OCCN)cc1)c1ccccc1 [NNDDtam, N,N‐di‐desmethyl tamoxifen]",Mean concentration,[1],94.7 nM
"CC/C(=C(\c1ccccc1)c1ccc(OCCN(C)C)cc1)c1ccccc1 [Tam, tamoxifen]",Mean concentration,[1],365.9 nM
same,Median concentration,[1],341.2 nM
same,Patients experiencing a relapse within 10 years,ER‐positive BC,~ 25%
CC/C(=C(\c1ccccc1)c1ccc(OCC[N+](C)(C)[O-])cc1)c1ccccc1 [TamNoX],Mean concentration,[1],49.9 nM
same,Median concentration,[1],43.1 nM
CC/C(=C(\c1ccccc1)c1ccc(OCCN(C)C)cc1)c1ccc(O)cc1 [Z‐4'‐OHtam],Mean concentration,[1],6.9 nM
same,Median concentration,[1],6.6 nM
CCC(=C(c1ccccc1)c1ccc(OCCNC)cc1)c1ccc(O)cc1 [Z‐4'‐endoxifen],Mean concentration,[1],20.8 nM
same,Median concentration,[1],19.6 nM
"CC/C(=C(\c1ccc(O)cc1)c1ccc(OCCN(C)C)cc1)c1ccccc1 [Z‐4OHtam, Z‐4‐hydroxy‐tamoxifen]",Affinity to the ER compared with tamoxifen,ER,100 × and ~ 100 ×
"CC/C(=C(\c1ccc(O)cc1)c1ccc(OCCNC)cc1)c1ccccc1 [Z‐endoxifen, 4‐hydroxy‐N‐desmethyl tamoxifen]","Association of ordinal categories (low, moderate, high concentration) with BCSS",[2]; 'tamoxifen-only' subgroup,No significant associations
same,Association of threshold with BCSS,"[2]; 'tamoxifen-only' subgroup, uni-/multivariable",No uni‐/multivariable associations
same,HR for BCSS,"[2]; Z-endoxifen 9.00 nM threshold, all patients n = 406",0.63 (0.15-2.60)
same,"HR (95% CI) for BCSS, univariable","[2]; Z-endoxifen ≤ 9 nM vs > 9 nM, 'tamoxifen-only' subgroup n = 191",0.98 (0.23–4.15)
same,Association of concentrations below thresholds with BCSS,"[2]; all 406 patients, thresholds 9 nM Z-endoxifen, 3.26 nM Z-4OHtam",not associated with BCSS
same,Predictive value of thresholds in Luminal A / Luminal B-like subgroups,"[2]; post hoc analysis, thresholds 3.26 and 9 nM",not predictive of survival in either subgroup
same,Affinity to the ER compared with tamoxifen,ER,100 × and ~ 100 ×
same,Median ratio between Z-endoxifen and Z-4OHtam concentrations,[1]; 'tamoxifen-only' subgroup,5.6
same,Range of ratio between Z-endoxifen and Z-4OHtam concentrations,[1]; 'tamoxifen-only' subgroup,1.9–14.9
same,Median ratio between Z-endoxifen and Z-4OHtam concentrations,[1]; [4],5.7
same,Range of ratio between Z-endoxifen and Z-4OHtam concentrations,[1]; [4],1.2–14.9
same,Mean concentration,[1],28.7 nM
same,Median concentration,[1],26.6 nM
same,Hazard ratio (HR) of threshold in prior report,breast cancer patients,3.73
same,Abundance in serum compared with Z-4OHtam,[3],up to 10 times
